Measured values from patent US5767297A, “Taxoid derivative and method of producing thereof” (Ensuiko Sugar Refining Co., Ltd., priority 1997, dated 1998).
Converted amounts (≈) assume the structure as drawn.

What was measured:
[1] = solubility in water (stirred 18 hours, filtrate analyzed by HPLC)
Experimental: (§1) After stirring, supernatant was filtered by a membrane filter (0.45,μm) and a filtate was analyzed by HPLC.
(§2) Colum: Taxil 5μ (4.6×250 mm), made by MetaChem
Solvent: MeOH/H2 O (80/20)
Detector: photodiode detector (230 nm)

[2] = stability in aqueous solutions; type: physicochemical
tubulin = test: microtubule depolymerization-inhibiting activity (absorbance at 350 nm after adding calcium chloride); type: biochemical; conditions: relative to paclitaxel; 5 μM
Experimental: Next, each of the above-described samples is mixed with tubulin (a main constituting protein of microtubule) and allowed to react at 37° C. for 15 minutes. Absorbance at 350 nm of the reaction solution was measured at 2, 5, 10 and 15 minutes after initiation of the reaction. Also, after the reaction ended, calcium chloride was added and, 5 minutes after this adding, absorbance at 350 nm was again measured. From each measured value was determined relative activity of each sample in the case that polymerization-promoting activity and depolymerization-inhibiting activity were taken as 100, and the results are shown in Table 2.

[3] = water, 18 h
Experimental: as §1, §2
Solvent: MeOH/H2 O (80/20)
Detector: photodiode detector (230 nm)

[4] = literature, I. Ringer et al.; cited from earlier work

Compound | solubility at 18 h [1] [µg/mL] | stability in aqueous solutions [2] | also measured
CC(=O)O[C@H]1C(=O)[C@]2(C)[C@@H](OC(=O)COC3O[C@H](CO)[C@@H](O)[C@H](O)[C@H]3O)C[C@H]3OC[C@@]3(OC(C)=O)[C@H]2[C@H](OC(=O)c2ccccc2)[C@]2(O)C[C@H](OC(=O)[C@H](OC(=O)COC3O[C@H](CO)[C@@H](O)[C@H](O)[C@H]3O)[C@@H](NC(=O)c3ccccc3)c3ccccc3)C(C)=C1C2(C)C (some centres unmarked) [2',7-S-paclitaxel, Diglucosyloxyacetyl-2',7-paclitaxel] | 48.4 (≈ 37.4 µM) | decomposed to paclitaxel in aqueous solutions and unstable in aqueous solutions | –
CC(=O)O[C@H]1C(=O)[C@@]2(C)[C@H]([C@H](OC(=O)c3ccccc3)[C@]3(O)C[C@H](OC(=O)[C@H](OC(=O)COC4O[C@H](CO)[C@@H](O)[C@H](O)[C@H]4O)[C@@H](NC(=O)c4ccccc4)c4ccccc4)C(C)=C1C3(C)C)[C@]1(OC(C)=O)CO[C@@H]1C[C@@H]2O (some centres unmarked) [2'-S-paclitaxel, Glucosyloxyacetyl-2'-paclitaxel] | 30.6 (≈ 28.5 µM) | decomposed to paclitaxel in aqueous solutions and unstable in aqueous solutions | –
CC(=O)O[C@H]1C(=O)[C@]2(C)[C@@H](OC(=O)COC3O[C@H](CO)[C@@H](O)[C@H](O)[C@H]3O)C[C@H]3OC[C@@]3(OC(C)=O)[C@H]2[C@H](OC(=O)c2ccccc2)[C@]2(O)C[C@H](OC(=O)[C@H](O)[C@@H](NC(=O)c3ccccc3)c3ccccc3)C(C)=C1C2(C)C (some centres unmarked) [7-S-paclitaxel, Glucosyloxyacetyl-7-paclitaxel] | 14.7 (≈ 13.7 µM) | – | depolymerization-inhibiting activity compared with paclitaxel (in words) (tubulin): more than twice as potent as that of paclitaxel
CC(=O)O[C@H]1C(=O)[C@@]2(C)[C@H]([C@H](OC(=O)c3ccccc3)[C@]3(O)C[C@H](OC(=O)[C@H](O)[C@@H](NC(=O)c4ccccc4)c4ccccc4)C(C)=C1C3(C)C)[C@]1(OC(C)=O)CO[C@@H]1C[C@@H]2O [Paclitaxel, paclitaxel] | – | – | Solubility [3]: 0.4 µg/mL (≈ 0.468 µM)
CC(=O)O[C@@]12CO[C@@H]1C[C@H](O)[C@@]1(C)C(=O)[C@H](O)C3=C(C)[C@@H](OC(=O)[C@H](O)[C@@H](NC(=O)OC(C)(C)C)c4ccccc4)C[C@@](O)([C@@H](OC(=O)c4ccccc4)[C@H]21)C3(C)C [docetaxel] | – | – | solubility in water relative to paclitaxel [4]: 1.3 times
